# Assay results: patent US9212204B2, “Treatment of rett syndrome using glycyl-L-2-methylprolyl-L-glutamic acid” (priority 2011, dated 2015)
# Non-standard residues stand in square brackets, D forms with d. Residues, ends and D or L forms follow the SMILES beside them. αMeP = C[C@@]1(C(=O)O)CCCN1
# Tests used:
# RTT iPSC-derived neurons = experiment: In vitro human model of Rett Syndrome, iPSC-derived neurons; type: cell-based; set-up: glutamatergic synapse numbers: dose or concentration left out as unconfirmed
# Excerpt: To test the effects of G-2-MePE on neuronal morphology, we used an in vitro model of RTT described in Marchetto et al., A model for neural development and treatment of Rett syndrome using human induced pluripotent stem cells, Cell 143:527-539 (2010) (including supplemental information). The model uses induced pluripotent stem cells (iPSCs) generated from fibroblasts of human RTT patients carrying different MeCP2 mutations.
# RTT fibroblasts (carrying 4 distinct MeCP2 mutations) and control fibroblasts are generated from explants of dermal biopsies. The shRNA against target MeCP2 gene is cloned into the LentiLox3.7 lentivirus vector (as described in Marchetto et al.). The fibroblasts are infected with retroviral reprogramming vectors (Sox2, Oct4, c-Myc and Klf4), Two days after infection, fibroblasts are plated on mitotically inactivated mouse embryonic fibroblasts with hESC medium. After 2 weeks, iPSC colonies that emerge from the background of fibroblasts are manually picked and transferred to feeder-free conditions on matrigel-coated dishes (BD) using embryonic stem cell culture media mTeSR™ (Stem Cell Technologies) and passaged manually. Gene expression profiles of the generated clones are measured using human genome Affymetrix Gene Chip™ arrays to confirm that reprogramming is successful.
# To obtain neural progenitor cells (NPCs), embryoid bodies (EBs) are formed by mechanical dissociation of cell clusters and plating onto low-adherence dishes in hESC medium without FGF2 for 5-7 days. After that, EBs are plated onto poly-ornithine/laminin-coated dishes in DMEM/F12 plus N2 medium (serum-free supplement for growth and expression of post-mitotic cells). […]
# Cells are fixed in 4% paraformaldehyde and permeabilized with 0.5% Triton-X100 in PBS. […] Fluorescent signals are detected using a Zeiss inverted microscope and images are processed with Photoshop CS3. The following primary antibodies are used: TRA-1-60, TRA-1-81 (1:100), Nanog and Lin28 (1:500), human Nestin (1:100), Tuj-1 (1:500), Map2 (1:100); meCP2 (1:1000; VGLUT1 (1:200), Psd95 (1:500), GFP (1:200), Sox1 (1:250), Mushasil (1:200) and me3H3K27 (1:500). Cell soma size is measured using suitable software (e.g. ImageJ) after identification of neurons using the Syn::EGFP™. The morphologies of neuronal dendrites and spines are studied from an individual projection of z-stacks optical sections and scanned at 0.5 um increments that correlate with the resolution valued at z-plane. Each optical section is the result of 3 scans at 500 lps followed by Kalman filtering. For synapse quantification, images are taken by a z-step of 1 um using Biorad radiance 2100™ confocal microscope. Synapse quantification is done blinded to genotype. Only VGLUT1 puncta along Map2-positive processes are counted. […]
# [1] = system: layer 5 pyramidal neurons in motor cortex of P28 knockout mice; experiment: Golgi staining, cortical spine density; type: in vivo, mouse; conditions: knockout with treatment
# Description: Samples (<1 cm) from P28 mice are fixed in 10% formalin and 3% potassium bichromate for 24 hours. Tissue is then transferred into 2% silver nitrate for 2 days in the dark at room temperature. Sections from these samples are then cut at 50 μm thickness into distilled water. Sections corresponding to motor cortex are mounted onto slides, air dried for 10 minutes, and then dehydrated through sequential rinses of 95% alcohol, 100% alcohol, and xylene, and then sealed with a coverslip. Images re acquired at 10× (whole cell) and 100× (spine imaging) using a Zeiss Pascal 5 Exciter confocal microscope.
# We use Golgi staining to label neurons sparsely and distinctly, and applied high-resolution confocal imaging to measure dendritic spine density and morphology in the labelled cells, restricting analysis to layer 5 pyramidal neurons in sections of motor cortex from critical period mice (P28).
# While low-magnification imaging clearly delineates the extent of the dendrites of the pyramidal cells we use higher magnifications to count synaptic contacts and determine the morphological class of each spine. We classify spines as either large and bulbous (“mushroom”, M), short and stubby (“stubby”, S), short and thin (“thin”, T) or filopodia (F).
structure (smiles),measurement,setting,value
"C[C@@]1(C(=O)N[C@@H](CCC(=O)O)C(=O)O)CCCN1C(=O)CN [Example G-2-MePE, Glycyl-L-2-methylprolyl-L-glutamic acid] (H-Gly-[αMeP]-Glu-OH)",frequency and amplitude of spontaneous post-synaptic currents,RTT iPSC-derived neurons; 1 week treatment,normalizes
same,frequency of calcium transients,RTT iPSC-derived neurons; 1 week treatment,normalizes
same,VGLUT1 puncta number,"RTT iPSC-derived neurons; all concentrations, 1 week",increase
same,glutamatergic synapse numbers,"RTT iPSC-derived neurons; for 1 week, vs non-treated RTT controls",significant increase
same,density of spines per unit branch,[1],largely ameliorated
